This assay addresses T1, Zcchc11 enzyme (Homo sapiens, UniProt Q5TAX3).
T1 construct: made in house; host or cells: HEK293 cells (Zcchc11); E. coli Rosetta II (LIN28A)
T1 sequence (Q5TAX3 212-1420): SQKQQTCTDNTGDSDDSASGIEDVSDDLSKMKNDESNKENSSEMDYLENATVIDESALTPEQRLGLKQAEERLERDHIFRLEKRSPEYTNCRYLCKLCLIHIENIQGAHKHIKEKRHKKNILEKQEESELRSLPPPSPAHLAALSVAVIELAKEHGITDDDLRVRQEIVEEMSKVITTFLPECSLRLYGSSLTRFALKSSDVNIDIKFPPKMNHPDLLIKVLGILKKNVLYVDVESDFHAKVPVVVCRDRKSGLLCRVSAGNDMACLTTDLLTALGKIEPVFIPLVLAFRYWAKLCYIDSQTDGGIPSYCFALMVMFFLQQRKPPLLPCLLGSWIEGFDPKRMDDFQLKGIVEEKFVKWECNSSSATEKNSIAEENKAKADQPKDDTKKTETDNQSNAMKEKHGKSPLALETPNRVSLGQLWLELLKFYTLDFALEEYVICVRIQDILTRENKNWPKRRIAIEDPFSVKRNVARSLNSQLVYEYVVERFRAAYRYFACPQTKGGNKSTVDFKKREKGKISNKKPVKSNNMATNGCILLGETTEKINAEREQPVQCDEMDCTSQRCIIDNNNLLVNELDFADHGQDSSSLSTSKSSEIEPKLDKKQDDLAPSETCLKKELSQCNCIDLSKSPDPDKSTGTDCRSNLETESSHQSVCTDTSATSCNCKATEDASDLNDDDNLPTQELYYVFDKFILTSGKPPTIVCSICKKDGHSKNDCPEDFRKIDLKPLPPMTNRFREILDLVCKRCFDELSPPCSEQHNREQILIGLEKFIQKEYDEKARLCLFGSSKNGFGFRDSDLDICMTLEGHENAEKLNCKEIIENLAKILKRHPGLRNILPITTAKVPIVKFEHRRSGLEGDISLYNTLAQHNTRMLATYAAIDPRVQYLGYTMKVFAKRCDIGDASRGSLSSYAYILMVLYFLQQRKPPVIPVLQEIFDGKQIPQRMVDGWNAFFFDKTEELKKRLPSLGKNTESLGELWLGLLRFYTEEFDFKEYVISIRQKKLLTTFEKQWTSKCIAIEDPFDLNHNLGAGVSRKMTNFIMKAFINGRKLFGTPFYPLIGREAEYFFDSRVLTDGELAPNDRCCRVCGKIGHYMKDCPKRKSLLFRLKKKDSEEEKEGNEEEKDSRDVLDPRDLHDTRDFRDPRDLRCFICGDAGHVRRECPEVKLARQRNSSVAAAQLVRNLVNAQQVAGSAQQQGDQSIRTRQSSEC
Nature of the assay: TUTase assay (Zcchc11 assay, Lin28a-dependent polyuridylation of pre-let-7). It counts as biochemical. The conditions noted are these: Lin28a-dependent Zcchc11 (Z11) TUTase activity; read-out: Potency Lin28a-dep Z11 IC50. The procedure: The purpose of the Zcchc11 assay is to determine compound potency against Zcchc11 enzyme through the measurement of IC50. Compound inhibition is measured as a function of polyuridine tails added to RNA substrates in the presence of active TUTase, UTP, and inhibitor. The Zcchc11 assay was done in a black, non-binding, 384 well plate (Corning #3575). All steps were performed at room temperature. For a typical assay, a 29 ul aliquot of assay buffer (50 mM HEPES pH 7.3, 150 mM KCl, 5 mM MgCl2, 10 mM DTT, 0.01% Triton X-100, 40 U/ml RNAsin (Promega)) containing LIN28A protein (final concentration: 10 nM) is added to each well. Next, 1 ul of compound in 100% DMSO is transferred from a compound dilution plate in which the compound is serially diluted. Next, 10 ul of a 5× mix of Zcchc11 and RNA substrate (5′-fluorescein labeled pre-let-7 miRNA (Dharmacon)) is added (final concentrations: 0.2 nM and 2 nM, respectively). The plate is placed on a plate shaker for 30 seconds to produce mixing, then incubated for 30 minutes. Next, 10 ul of a 5× mix of UTP and the quenching probe (3′-rhodamine labeled A20, polyadenosine nucleotide, (IDT)) is added (final concentrations: 5 uM and 4 nM, respectively). The plate is immediately placed in a Biotek Cytation 5 plate reader, and the time-dependent decrease in fluorescein fluorescence resulting from annealing of the A20 probe to polyuridine tails is recorded, using the kinetics mode of the reader. Reaction rates are obtained using linear fits to the early portion of progress curves. IC50 values are calculated using a four parameter fit with 100% enzyme activity determined from the DMSO control and 0% activity from control samples lacking UTP.
The LIN28A protein was expressed in and purified from E. coli, strain Rosetta II (Novagen). The entire coding sequence of the human, wild-type protein was cloned into expression vector pMAL (NEB), down-stream from a maltose-binding protein tag. The linker sequence contained a TEV protease cleavage site. The protein was purified from bacterial extracts using an MBP-Trap column (GE Healthcare Life Sciences), followed by tag cleavage and removal of the tag by ion-exchange chromatography. When necessary, contaminating bacterial RNA was removed using the procedure describe by Faehnle C R. et al. (2017) Multi-domain utilization by TUT4 and TUT7 in control of let-7 biogenesis. Nat Struct Mol Biol, 24:658-665.
The Zcchc11 protein was expressed in and purified from HEK293 cells. A truncated protein comprising residues 212-1420 of the human sequence was cloned into expression vector pTT5 (Viva Biotech) down-stream from a maltose-binding protein tag. The linker sequence contained a TEV protease cleavage site, and a FLAG tag was added to the carboxyl terminus of the protein. The protein was purified from cell extracts using an MBP-Trap column (GE Healthcare Life Sciences), followed by tag cleavage and further enrichment of the full length construct using anti-FLAG affinity media (Sigma Aldrich).
“+” represents an IC50 value that is greater than 50 μM; “++” represents an IC50 value that is greater than 10 μM and equal to or less than 50 μM; “+++” represents an IC50 value that is greater than 1 μM and equal to or less than 10 μM; and “++++” represents an IC50 value that is equal to or less than 1 μM.

Regarding `COc1ccc(Cl)c(OC[C@H]2C[C@H]3C[C@H]3N2c2cc3c(cc2F)c(=O)c(C(=O)O)cn3-c2ccc(N3CC(N(C)C)C3)nc2)n1` (racemic) [Compound 234, Rac-7-((1R,3R,5R)-3-(((3-chloro-6-methoxy-pyridin-2-yl)oxy)methyl)-2-azabicyclo [3.1.0]hexan-2-yl)-1-(6-(3-(dimethyl-amino)azetidin-1-yl)pyridin-3-yl)-6-fluoro-4-oxo-1,4-dihydro-quinoline-3-carboxylic acid], the IC50 – broadly, the concentration that gives 50% inhibition – is not above 1000 nM.

Regarding `COc1ccc(F)c(OC[C@H]2C[C@H]3C[C@H]3N2c2cc3c(cc2F)c(=O)c(C(=O)O)cn3-c2ccnc(N)c2)n1` (racemic) [Compound 235, Rac-1-(2-aminopyridin-4-yl)-6-fluoro-7-((1R,3R,5R)-3-(((3-fluoro-6-methoxy-pyridin-2-yl)oxy)methyl)-2-azabicyclo [3.1.0]hexan-2-yl)-4-oxo-1,4-dihydro-quinoline-3-carboxylic acid], the IC50 was not above 1000 nM.

`Cn1cc(-n2cc(C(=O)O)c(=O)c3cc(C#N)c(N4CCCC4COc4ncccc4F)cc32)cn1` (racemic) [Compound 245, rac-(R)-6-cyano-7-(2-(((3-fluoropyridin-2-yl)oxy)methyl)pyrrolidin-1-yl)-1-(1-methyl-1H-pyrazol-4-yl)-4-oxo-1,4-dihydro-quinoline-3-carboxylic acid]: the IC50 is not above 1000 nM.

Regarding `COCCN(C)C1CN(c2ccc(-n3cc(C(=O)O)c(=O)c4cc(F)c(N5CC[C@H](C)[C@@H]5COc5ncccc5Cl)cc43)cn2)C1` (racemic) [Compound 262, rac-7-((2R,3S)-2-(((3-chloropyridin-2-yl)oxy)methyl)-3-methyl-pyrrolidin-1-yl)-6-fluoro-1-(6-(3-((2-methoxy-ethyl)(methyl)amino)azetidin-1-yl)pyridin-3-yl)-4-oxo-1,4-dihydro-quinoline-3-carboxylic acid], the IC50 is not above 1000 nM.

As for `O=C(O)c1cn(-c2cnc(OCc3ccccc3)cn2)c2cc(N3CCC[C@@H]3COc3ncccc3Cl)c(Cl)cc2c1=O` (racemic) [Compound 263, rac-(R)-1-(5-(benzyloxy)pyrazin-2-yl)-6-chloro-7-(2-(((3-chloropyridin-2-yl)oxy)methyl)pyrrolidin-1-yl)-4-oxo-1,4-dihydro-quinoline-3-carboxylic acid], the half-maximal inhibitory concentration (IC50) was not above 1000 nM.

Take `CN(C)C1CN(c2ccc(-n3cc(C(=O)O)c(=O)c4cc(Cl)c(N5CCC[C@@H]5COc5nc6c(cc5Cl)ncn6C)cc43)cn2)C1` (racemic) [Compound 274, rac-(R)-6-chloro-7-(2-(((6-chloro-3-methyl-3H-imidazo [4,5-b]pyridin-5-yl)oxy)methyl)pyrrolidin-1-yl)-1-(6-(3-(dimethyl-amino)azetidin-1-yl)pyridin-3-yl)-4-oxo-1,4-dihydro-quinoline-3-carboxylic acid]: the IC50 was not above 1000 nM.

For the molecule `Cn1cc(-n2cc(C(=O)O)c(=O)c3cc(F)c(N4CCC[C@@H]4COc4ncccc4F)cc32)cn1` (racemic) [Compound 290, rac-(R)-6-fluoro-7-(2-(((3-fluoropyridin-2-yl)oxy)methyl)pyrrolidin-1-yl)-1-(1-methyl-1H-pyrazol-4-yl)-4-oxo-1,4-dihydro-quinoline-3-carboxylic acid], the IC50 was not above 1000 nM.

As for `CN(C)C1CN(c2ccc(-n3cc(C(=O)O)c(=O)c4cc(Cl)c(N5CC(F)(F)C[C@@H]5COc5ncccc5Cl)cc43)cn2)C1` (racemic) [Compound 305, rac-(R)-6-chloro-7-(2-(((3-chloropyridin-2-yl)oxy)methyl)-4,4-difluoro-pyrrolidin-1-yl)-1-(6-(3-(dimethyl-amino)azetidin-1-yl)pyridin-3-yl)-4-oxo-1,4-dihydro-quinoline-3-carboxylic acid], the concentration for half-maximal inhibition (IC50) was not above 1000 nM.

In the case of `CN(C)C1CN(c2ccc(-n3cc(C(=O)O)c(=O)c4cc(Cl)c(N5CC(c6cccnn6)C[C@@H]5COc5ncccc5Cl)cc43)cn2)C1` (mixture of isomers) [Compound 307, rac-6-chloro-7-((2R)-2-(((3-chloropyridin-2-yl)oxy)methyl)-4-(pyridazin-3-yl)pyrrolidin-1-yl)-1-(6-(3-(dimethyl-amino)azetidin-1-yl)pyridin-3-yl)-4-oxo-1,4-dihydro-quinoline-3-carboxylic acid], the IC50 was not above 1000 nM.

In the case of `O=C(O)c1cn2c3cc(c(F)cc3c1=O)N1CCC[C@@H]1COc1ncccc1OCCOc1ccc-2cc1` (racemic) [Compound 312, rac-(R)-26-fluoro-24-oxo-21,24-dihydro-5,7,10-trioxa-2(1,7)-quinolina-6(2,3)-pyridina-3(1,2)-pyrrolidina-1(1,4)-benzenacyclo-decaphane-23-carboxylic acid formic acid], the IC50 was more than 50000 nM.

In the case of `NCCOc1cccnc1OC[C@H]1CCCN1c1cc2c(cc1Cl)c(=O)c(C(=O)O)cn2-c1ccc(Br)nc1` (racemic) [Compound 313, rac-(R)-7-(2-(((3-(2-aminoethoxy)pyridin-2-yl)oxy)methyl)pyrrolidin-1-yl)-1-(6-bromopyridin-3-yl)-6-chloro-4-oxo-1,4-dihydro-quinoline-3-carboxylic acid], the IC50 was not above 1000 nM.

With `CN(C)C1CN(c2ccc(-n3cc(C(=O)O)c(=O)c4cc(Cl)c(N5CCC[C@@]5(C)COc5ncccc5Cl)cc43)cn2)C1` (racemic) [Compound 314, rac-(R)-6-chloro-7-(2-(((3-chloropyridin-2-yl)oxy)methyl)-2-methyl-pyrrolidin-1-yl)-1-(6-(3-(dimethyl-amino)azetidin-1-yl)pyridin-3-yl)-4-oxo-1,4-dihydro-quinoline-3-carboxylic acid formic acid], the IC50 was not above 1000 nM.

For `CN(C)C1CN(c2ccc(-n3cc(C(=O)O)c(=O)c4cc(Cl)c(N5CC(c6ccccn6)C[C@@H]5COc5ncccc5Cl)cc43)cn2)C1` (mixture of isomers) [Compound 315, rac-6-chloro-7-((2R)-2-(((3-chloropyridin-2-yl)oxy)methyl)-4-(pyridin-2-yl)pyrrolidin-1-yl)-1-(6-(3-(dimethyl-amino)azetidin-1-yl)pyridin-3-yl)-4-oxo-1,4-dihydro-quinoline-3-carboxylic acid], the IC50 is not above 1000 nM.
